{"source": "PubChem BioAssay (NCI)", "test_in_all_cases": "DTP human tumour cell line panel, 48 h", "key": {"HCT-15 colon": {"test_system": "HCT-15 colon"}, "U251 CNS": {"test_system": "U251 CNS"}, "EKVX NSCLC": {"test_system": "EKVX NSCLC"}, "SW-620 colon": {"test_system": "SW-620 colon"}, "UACC-62 melanoma": {"test_system": "UACC-62 melanoma"}, "SR leukemia": {"test_system": "SR leukemia"}, "SF-268 CNS": {"test_system": "SF-268 CNS"}, "A549 NSCLC": {"test_system": "A549 NSCLC"}, "MDA-MB-435": {"test_system": "MDA-MB-435"}, "SK-OV-3 ovarian": {"test_system": "SK-OV-3 ovarian"}, "M14 melanoma": {"test_system": "M14 melanoma"}, "HL-60(TB) leukemia": {"test_system": "HL-60(TB) leukemia"}, "SK-MEL-28 melanoma": {"test_system": "SK-MEL-28 melanoma"}, "RPMI-8226 leukemia": {"test_system": "RPMI-8226 leukemia"}, "OVCAR-8 ovarian": {"test_system": "OVCAR-8 ovarian"}, "786-0 renal": {"test_system": "786-0 renal"}, "A498 renal": {"test_system": "A498 renal"}, "HOP-92 NSCLC": {"test_system": "HOP-92 NSCLC"}, "OVCAR-3 ovarian": {"test_system": "OVCAR-3 ovarian"}, "HCT-116 colon": {"test_system": "HCT-116 colon"}, "SF-539 CNS": {"test_system": "SF-539 CNS"}, "NCI/ADR-RES ovarian": {"test_system": "NCI/ADR-RES ovarian"}, "SN12C renal": {"test_system": "SN12C renal"}, "UO-31 renal": {"test_system": "UO-31 renal"}, "MCF7 breast": {"test_system": "MCF7 breast"}, "PC-3 prostate": {"test_system": "PC-3 prostate"}, "UACC-257 melanoma": {"test_system": "UACC-257 melanoma"}, "KM12 colon": {"test_system": "KM12 colon"}, "ACHN renal": {"test_system": "ACHN renal"}}, "note": "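Step 1: Grow cells in 96-well plates. Step 2: Expose to compound for 48 hours at 5 concentrations. Step 3: Interpolate endpoints linearly; if unreached, use highest concentration. GI50 is the concentration that inhibits growth by half. TGI is the concentration that stops growth completely.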"}
{"smiles": "CCC(=O)Nc1cc(Nc2cc(NC3CC3)n3ncc(C#N)c3n2)ccc1C", "values": [{"measurement": "GI50", "setting": "HCT-15 colon", "value": 1.25, "unit": "µM"}, {"measurement": "TGI", "setting": "HCT-15 colon", "value": 29.6, "unit": "µM"}, {"measurement": "GI50", "setting": "U251 CNS", "value": 0.94, "unit": "µM"}, {"measurement": "TGI", "setting": "U251 CNS", "value": "> 100", "unit": "µM"}, {"measurement": "GI50", "setting": "EKVX NSCLC", "value": 1.16, "unit": "µM"}, {"measurement": "TGI", "setting": "EKVX NSCLC", "value": 45, "unit": "µM"}, {"measurement": "GI50", "setting": "SW-620 colon", "value": 1.28, "unit": "µM"}, {"measurement": "TGI", "setting": "SW-620 colon", "value": 19, "unit": "µM"}, {"measurement": "GI50", "setting": "UACC-62 melanoma", "value": 1.22, "unit": "µM"}, {"measurement": "TGI", "setting": "UACC-62 melanoma", "value": 12.1, "unit": "µM"}, {"measurement": "GI50", "setting": "SR leukemia", "value": 1.78, "unit": "µM"}, {"measurement": "TGI", "setting": "SR leukemia", "value": "> 100", "unit": "µM"}, {"measurement": "GI50", "setting": "SF-268 CNS", "value": 2.32, "unit": "µM"}, {"measurement": "TGI", "setting": "SF-268 CNS", "value": 57.4, "unit": "µM"}, {"measurement": "GI50", "setting": "A549 NSCLC", "value": 1.8, "unit": "µM"}, {"measurement": "TGI", "setting": "A549 NSCLC", "value": 17.3, "unit": "µM"}, {"measurement": "GI50", "setting": "MDA-MB-435", "value": 2.06, "unit": "µM"}, {"measurement": "TGI", "setting": "MDA-MB-435", "value": 30.7, "unit": "µM"}, {"measurement": "GI50", "setting": "SK-OV-3 ovarian", "value": 1.6, "unit": "µM"}, {"measurement": "TGI", "setting": "SK-OV-3 ovarian", "value": 9.04, "unit": "µM"}, {"measurement": "TGI", "setting": "M14 melanoma", "value": 12.5, "unit": "µM"}, {"measurement": "GI50", "setting": "HL-60(TB) leukemia", "value": 0.6, "unit": "µM"}, {"measurement": "TGI", "setting": "HL-60(TB) leukemia", "value": 12.3, "unit": "µM"}, {"measurement": "GI50", "setting": "SK-MEL-28 melanoma", "value": 4.02, "unit": "µM"}, {"measurement": "TGI", "setting": "SK-MEL-28 melanoma", "value": "> 100", "unit": "µM"}, {"measurement": "GI50", "setting": "RPMI-8226 leukemia", "value": 1.77, "unit": "µM"}, {"measurement": "TGI", "setting": "RPMI-8226 leukemia", "value": 17.6, "unit": "µM"}, {"measurement": "GI50", "setting": "OVCAR-8 ovarian", "value": 3.63, "unit": "µM"}, {"measurement": "TGI", "setting": "OVCAR-8 ovarian", "value": "> 100", "unit": "µM"}, {"measurement": "GI50", "setting": "786-0 renal", "value": 3.46, "unit": "µM"}, {"measurement": "TGI", "setting": "786-0 renal", "value": 43.5, "unit": "µM"}, {"measurement": "GI50", "setting": "A498 renal", "value": 0.0965, "unit": "µM"}, {"measurement": "TGI", "setting": "A498 renal", "value": 1.16, "unit": "µM"}, {"measurement": "GI50", "setting": "HOP-92 NSCLC", "value": 0.449, "unit": "µM"}, {"measurement": "TGI", "setting": "HOP-92 NSCLC", "value": 6.39, "unit": "µM"}, {"measurement": "GI50", "setting": "OVCAR-3 ovarian", "value": 1.1, "unit": "µM"}, {"measurement": "TGI", "setting": "OVCAR-3 ovarian", "value": 14.6, "unit": "µM"}, {"measurement": "GI50", "setting": "HCT-116 colon", "value": 0.737, "unit": "µM"}, {"measurement": "TGI", "setting": "HCT-116 colon", "value": 12, "unit": "µM"}, {"measurement": "GI50", "setting": "SF-539 CNS", "value": 1.81, "unit": "µM"}, {"measurement": "TGI", "setting": "SF-539 CNS", "value": 46.9, "unit": "µM"}, {"measurement": "GI50", "setting": "NCI/ADR-RES ovarian", "value": 2.99, "unit": "µM"}, {"measurement": "TGI", "setting": "NCI/ADR-RES ovarian", "value": 30.3, "unit": "µM"}, {"measurement": "GI50", "setting": "SN12C renal", "value": 3.16, "unit": "µM"}, {"measurement": "TGI", "setting": "SN12C renal", "value": "> 100", "unit": "µM"}, {"measurement": "GI50", "setting": "UO-31 renal", "value": 2.09, "unit": "µM"}, {"measurement": "TGI", "setting": "UO-31 renal", "value": 13.7, "unit": "µM"}, {"measurement": "GI50", "setting": "MCF7 breast", "value": 0.421, "unit": "µM"}, {"measurement": "TGI", "setting": "MCF7 breast", "value": 10.7, "unit": "µM"}, {"measurement": "GI50", "setting": "PC-3 prostate", "value": 1.73, "unit": "µM"}, {"measurement": "TGI", "setting": "PC-3 prostate", "value": 23.3, "unit": "µM"}, {"measurement": "GI50", "setting": "UACC-257 melanoma", "value": 1.77, "unit": "µM"}, {"measurement": "TGI", "setting": "UACC-257 melanoma", "value": 53.6, "unit": "µM"}, {"measurement": "GI50", "setting": "KM12 colon", "value": 1.81, "unit": "µM"}, {"measurement": "TGI", "setting": "KM12 colon", "value": 47, "unit": "µM"}, {"measurement": "GI50", "setting": "ACHN renal", "value": 1.67, "unit": "µM"}, {"measurement": "TGI", "setting": "ACHN renal", "value": 15.6, "unit": "µM"}]}
